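Five compound concentrations were applied to cells in 96-well plates for 48 hours; endpoints were derived by simple linear interpolation of the resulting dose-response curve. The concentration for 50% growth inhibition is given as GI50.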 Active and inactive are the calls of the source. No stated cut-off is given here; in the data, active = GI50 up to about 1.1 µM and inactive = higher.
How the values were obtained:
Assay in all cases: growth of human tumour cells (NCI), 48 h
CAKI-1 = test system: CAKI-1
CCRF-CEM = test system: CCRF-CEM
COLO 205 = test system: COLO 205
Hs-578T = test system: Hs-578T
K562 = test system: K562
KM12 = test system: KM12
LOX IMVI = test system: LOX IMVI
M14 = test system: M14
NCI-H460 = test system: NCI-H460
SF-539 = test system: SF-539
SK-MEL-5 = test system: SK-MEL-5
SNB-19 = test system: SNB-19
SW-620 = test system: SW-620
TK-10 = test system: TK-10
U-251 = test system: U-251
UACC-62 = test system: UACC-62
IGROV-1 = test system: IGROV-1
OVCAR-4 = test system: OVCAR-4
SK-MEL-2 = test system: SK-MEL-2

Measured: GI50

Cc1ccc2c(/C=C/c3ccc(N(C)C)cc3)ccnc2c1C
inactive: CAKI-1 27.4 µM | CCRF-CEM 32.9 µM | COLO 205 18.4 µM | Hs-578T 43.2 µM | K562 6.81 µM | KM12 6.78 µM | LOX IMVI 28.5 µM | M14 51.4 µM | NCI-H460 25.6 µM | SF-539 32.2 µM | SK-MEL-5 18.2 µM | SNB-19 > 100 µM | SW-620 20.4 µM | TK-10 16.2 µM | U-251 38.7 µM | UACC-62 13.4 µM

Nc1ccc2nc3c(nc2c1)C(=O)c1ccccc1-3
inactive: CCRF-CEM 84.3 µM | COLO 205 > 100 µM | Hs-578T > 100 µM | IGROV-1 > 100 µM | K562 > 100 µM | KM12 > 100 µM | M14 > 100 µM | NCI-H460 69.2 µM | OVCAR-4 > 100 µM | SF-539 > 100 µM | SK-MEL-5 > 100 µM | SNB-19 > 100 µM | SW-620 > 100 µM | TK-10 > 100 µM | U-251 > 100 µM | UACC-62 > 100 µM

CC(=O)C(N1CCCCC1)C(O)(C(F)(F)F)C(F)(F)F (stereo unspecified)
inactive: CAKI-1 > 100 µM | CCRF-CEM 37.3 µM | COLO 205 > 100 µM | Hs-578T 41.1 µM | IGROV-1 89.9 µM | K562 50.4 µM | KM12 > 100 µM | LOX IMVI > 100 µM | M14 > 100 µM | NCI-H460 89.1 µM | OVCAR-4 > 100 µM | SF-539 > 100 µM | SK-MEL-5 19.8 µM | SNB-19 > 100 µM | SW-620 98.2 µM | TK-10 > 100 µM | U-251 88.9 µM | UACC-62 86.9 µM

N#CCCN(CCN(C(=O)Nc1ccccc1)c1ccccc1)C(=O)Nc1ccccc1
inactive: CAKI-1 > 43 µM | CCRF-CEM 17.7 µM | COLO 205 53.5 µM | IGROV-1 76.7 µM | K562 29.9 µM | KM12 48.3 µM | LOX IMVI 49.8 µM | M14 77.6 µM | NCI-H460 > 67.5 µM | OVCAR-4 > 100 µM | SF-539 > 65 µM | SK-MEL-2 > 100 µM | SK-MEL-5 60.7 µM | SNB-19 > 57.3 µM | SW-620 > 100 µM | TK-10 61.8 µM | U-251 65.6 µM | UACC-62 65 µM

c1ccc(-c2nc(-c3ccccc3SSc3ccccc3-c3nc(-c4ccccc4)nn3-c3ccccc3)n(-c3ccccc3)n2)cc1
inactive: CAKI-1 > 100 µM | CCRF-CEM > 100 µM | COLO 205 > 100 µM | Hs-578T > 100 µM | IGROV-1 > 100 µM | K562 > 100 µM | KM12 > 100 µM | LOX IMVI > 100 µM | M14 > 100 µM | NCI-H460 > 100 µM | SF-539 > 100 µM | SNB-19 > 100 µM | SW-620 > 100 µM | TK-10 > 100 µM | U-251 > 100 µM | UACC-62 > 100 µM

O=C1N[C@H]2c3c(Cl)sc(Cl)c3[C@@H](O)[C@H]2O1
inactive: CAKI-1 > 100 µM | CCRF-CEM > 100 µM | COLO 205 > 100 µM | IGROV-1 > 100 µM | K562 > 100 µM | KM12 > 100 µM | M14 > 100 µM | NCI-H460 > 100 µM | SF-539 > 100 µM | SK-MEL-2 > 100 µM | SK-MEL-5 > 100 µM | SNB-19 > 100 µM | SW-620 > 100 µM | TK-10 > 100 µM | U-251 > 100 µM | UACC-62 > 100 µM

O=[N+]([O-])/C(C(Cl)=C(Cl)Cl)=C(/Nc1ccccc1)Sc1ccccc1
inactive: CAKI-1 13.5 µM | CCRF-CEM 16.8 µM | COLO 205 18.5 µM | Hs-578T 40.4 µM | IGROV-1 19.9 µM | K562 20.6 µM | KM12 18.2 µM | LOX IMVI 15.7 µM | M14 19.8 µM | NCI-H460 18.4 µM | OVCAR-4 19.7 µM | SF-539 24.9 µM | SK-MEL-5 20.3 µM | SNB-19 17.5 µM | SW-620 25.1 µM | TK-10 27.7 µM | U-251 14.6 µM | UACC-62 19.9 µM

Cc1ccc([S+]([O-])/C=C(\NC(=O)OCc2ccccc2)C(F)(F)F)cc1 (stereo unspecified)
inactive: CAKI-1 42 µM | CCRF-CEM 31.6 µM | COLO 205 58.6 µM | IGROV-1 45.3 µM | K562 28.1 µM | KM12 32.9 µM | LOX IMVI 32.1 µM | M14 > 100 µM | NCI-H460 41.4 µM | OVCAR-4 67.5 µM | SF-539 26.7 µM | SK-MEL-2 32.4 µM | SK-MEL-5 60.4 µM | SNB-19 29.3 µM | SW-620 19.3 µM | TK-10 80.2 µM | U-251 18.6 µM | UACC-62 35.2 µM

Source: ChEMBL document CHEMBL1201862, “PubChem BioAssay data set” (2004)
